Test results taken from patent US20260274794A1, “COMPOUNDS, COMPOSITIONS, AND METHOD OF INHIBITING TAU PROTEIN AND ALPHASYNUCLEIN AGGREGATION” (Purdue Research Foundation, priority 2023, published 2026).

How the values were obtained:
Assay type in all cases: biochemical
α-synuclein (α-syn) = biological target: T1, α-synuclein (α-syn) (Homo sapiens, UniProt P37840); test: Thioflavin T (ThT) fluorescence assay of α-syn fibril formation; conditions: compound 100 μM; ThT fluorescence intensity at plateau phase, control = 100%
T1 construct: purchased rPeptide, LLC (Watkinsville, GA)
Protocol: (§1) ThT fluorescence is routinely established assay to follow the kinetics of α-syn fibril formation with different drug candidate treatments. Compounds were first tested at a final of concentration of 100 μM and α-syn and 2N4R tau were prepared at 2 μM and 6 μM, respectively. Compounds with highest anti-fibrillary activity were tested at 3.125, 6.25, 12.5, 25, 50, and 100 μM to obtain dose-response curves.
For the α-syn ThT assay, ThT was used at a final concentration of 20 μM. α-Syn was dissolved in 20 mM Tris-HCl (pH 7.4) supplemented with 100 mM NaCl to a stock solution of 280 μM (1 mg/250 μL) prior to resuspension in ThT buffer to obtain a final concentration of 2 μM. Compounds and ThT were first added to the wells. The kinetics of fibril formation begin when the α-syn was solubilized in the ThT buffer (10 mM PBS buffer (pH 7.4), supplemented with 0.5 mM SDS and 300 mM NaCl) and added to a non-treated black 96 well microplate with a transparent flat bottom. Each well was filled with a maximum volume of 150 μL buffer with one 3 mm borosilicate bead. The background fluorescence signal consisted of ThT in buffer and 0.25% DMSO without α-syn. The excitation and emission wavelengths were set at 440 and 485 nm, respectively, with a Synergy HT multi-mode microplate reader (BioTek, Winooski, VT). Measurements were taken at 37° C. every 20 minutes over 50 hours of shaking prior to reading the plate. Samples were measured in three replicates and the experiments were repeated three times using different α-syn stock solutions. For each time point, the background fluorescence signal was subtracted. Arbitrary units of fluorescence were calculated from the mean values normalized against the maximum value in each completed assay. Arbitrarily, the maximum value (100%) for the fluorescence intensity was established for α-syn.
Compounds were tested at 100 μM with α-syn at 6 μM, resulting in a molar ratio of approximately 1:16 (protein:compound). The plateau phase of sigmoidal kinetics is of particular interest because it is the phase in which mature fibrils form and where aggregation and disaggregation are at equilibrium with each other; therefore, the fluorescence intensity between multiple compounds at the plateau phase can be compared to identify the compounds with the most promising anti-aggregation activity (Table 1, column α-syn ThT %). […] Compound 17 was the best representative of the 5-aminoindole series and moved to the tier-2 assays, even though the resulting ThT percentage of fluorescence intensity was 10% higher than the cut off. These compounds were then tested on tau 2N4R ThT fluorescence assays.

tau isoform 2N4R [1] = biological target: T2, tau isoform 2N4R (Homo sapiens, UniProt P10636); test: ThT fluorescence assay of tau isoform 2N4R fibril formation; conditions: compound 100 μM, tau 2N4R 6 μM
T2 construct: made in house; host or cells: E. coli BL21 (DE3), vector pRK172
T2 sequence (P10636 1-441 isoform P10636-8): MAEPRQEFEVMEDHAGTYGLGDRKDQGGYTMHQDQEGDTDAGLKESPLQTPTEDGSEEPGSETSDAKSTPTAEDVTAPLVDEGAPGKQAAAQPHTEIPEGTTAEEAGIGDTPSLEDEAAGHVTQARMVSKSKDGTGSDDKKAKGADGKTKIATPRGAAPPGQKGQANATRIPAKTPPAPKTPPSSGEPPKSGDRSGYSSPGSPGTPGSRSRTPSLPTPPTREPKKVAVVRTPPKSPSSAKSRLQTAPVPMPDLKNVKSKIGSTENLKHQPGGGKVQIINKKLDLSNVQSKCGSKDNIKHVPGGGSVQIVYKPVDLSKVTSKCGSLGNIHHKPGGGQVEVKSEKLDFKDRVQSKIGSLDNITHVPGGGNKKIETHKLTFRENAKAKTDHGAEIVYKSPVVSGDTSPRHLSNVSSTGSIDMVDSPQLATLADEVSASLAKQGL
Protocol: as §1
Concerning the non-phosphorylated tau (isoform 2N4R) kinetics of fibril formation, ThT was performed with the tau protein solution was diluted to a final concentration of 6 μM in PBS (pH 7.4) supplemented with 1.5 μM heparin, 20 μM ThT, 2.5 mM DTT, and 100 μM compound. Aliquots of the diluted protein solution (100 μL each) were pipetted into the wells of a 96-well plate, and a Teflon ball was added to each well. The plate was incubated at 37° C. with constant shaking at 1,000 rpm in a Tecan Stark plate reader. ThT fluorescence was measured every 15 min with excitation and emission wavelengths of 440 nm and 480 nm, and the data were plotted using GraphPad Prism.
Various structural analogs were first tested at a final concentration of 100 μM in the presence of tau 2N4R at 6 μM. Compounds 2, 4-8, and 17 were pre-selected with α-syn ThT assay prior to evaluation on the tau isoform 2N4R.

tau isoform 2N4R [2] = biological target: T2, tau isoform 2N4R; test: PICUP assay of tau isoform 2N4R oligomerization; conditions: compound 50 μM
Protocol: To force the oligomerization by cross-linking, α-syn (from Rpeptide, LLC) and tau isoform 2N4R were diluted in 10 mM phosphate buffer (pH 7.4) to reach a final concentration of 10 μM [27]. Different compounds were added to the protein solution at a final concentration of 50 μM, resulting in a molar ratio of 1:5. To confirm the gradual effect of the compounds on the inhibition of α-syn oligomerization, compounds were tested at final concentration of 3.125, 6.25, 12.5, 25, and 50 μM. The controls consisted of samples without light exposition, without Ru(bpy), and without compound (i.e., 0.125% DMSO). The cross-linking reaction was initiated by the addition of 2 μL of Ru(bpy) (300 μM final concentration) and 2 μL ammonium persulfate (6 mM final concentration). Samples were irradiated immediately. Light exposition was of 1 second duration for ca-syn and 3 second duration for tau isoform 2N4R, with a 53 W (120 V) incandescent lamp installed in a homemade dark-box. Each tube contained a final volume of 20 μL. After irradiation, 8.3 μL. of Lammeli loading buffer containing 15% β-mercaptoethanol was immediately added to the solution, followed by incubation at 95° C. for 10 minutes. The cross-linked samples were separated on a 16% SDS-Page gel and visualized by Coomassie blue staining.
One end point used to verify the propensity of misfolded protein in the drug discovery field is the inhibition of oligomer formation. The photo-induced cross-linking of unmodified proteins (PICUP) assay was used to investigate α-syn (60 μM) and tau isoform 2N4R (6 μM) oligomerization in the presence of eight amide compounds (2, 4, 5, 6, 7, 8, 13, and 17 at 50 μM, i.e., ~molar ratio 1:8 for tau). After being subjected to short light exposure, α-syn and tau were cross-linked and Coomassie-stained resolved as a higher molecular weight compared to control (0.125% DMSO). […] Compound 13 was used as a negative control for the α-syn PICUP.
PICUP assays were performed with different concentrations (50 μM, 25 μM, 12.5 μM, 6.25 μM, 3.125 μM; control=0.125% DMSO) for each lead compound.

| Structure (SMILES) | remaining activity at 100 µM (α-synuclein (α-syn)) [%] | effect on tau isoform 2N4R fibril formation (ThT) (tau isoform 2N4R [1]) | tau isoform 2N4R oligomerization (PICUP crosslinking) (tau isoform 2N4R [2]) | α-Syn ThT% (α-synuclein (α-syn)) [%] |
| --- | --- | --- | --- | --- |
| O=C(Nc1cccc2[nH]ccc12)c1cccs1 [Compound 1] | 64 |  |  |  |
| COc1cccc(C(=O)Nc2cccc3[nH]ccc23)c1 [Compound 3] | 43 |  |  |  |
| O=C(Nc1cccc2[nH]ccc12)c1ccc(Cl)cc1 [Compound 4, 4-chloro-N-(1H-indol-4-yl)benzamide] | ≤ 30 | good inhibitory effect |  |  |
| O=C(Nc1cccc2[nH]ccc12)c1ccccc1Cl [Compound 5, 2-chloro-N-(1H-indol-4-yl)benzamide] | ≤ 30 | good inhibitory effect |  |  |
| O=C(Nc1cccc2[nH]ccc12)c1ccc(C(F)(F)F)cc1 [Compound 6, N-(1H-indol-4-yl)-4-(rifluoromethyl)benzamide] | ≤ 30 | weaker anti-fibrilization effect | strongest oligomer band |  |
| N#Cc1ccc(C(=O)Nc2cccc3[nH]ccc23)cc1 [Compound 7, 4-cyano-N-(1H-indol-4-yl)benzamide] | ≤ 30 | good inhibitory effect |  |  |
| O=C(Nc1ccc2[nH]ccc2c1)c1cccs1 [Compound 9, N-(1H-indol-5-yl)thiophene-2-carboxamide] | 40.5 ± 2.3 |  |  |  |
| O=C(Nc1ccc2[nH]ccc2c1)c1ccccc1 [Compound 10, N-(1H-indol-5-yl)benzamide] | 102 ± 13.3 |  |  |  |
| COc1cccc(C(=O)Nc2ccc3[nH]ccc3c2)c1 [Compound 11, N-(1H-indol-5-yl)-3-methoxybenzamide] | 48.6 ± 2.6 |  |  |  |
| O=C(Nc1ccc2[nH]ccc2c1)c1ccc(Cl)cc1 [Compound 12, 4-chloro-N-(1H-indol-5-yl)benzamide] | 67.5 ± 16.3 |  |  |  |
| N#Cc1ccc(C(=O)Nc2ccc3[nH]ccc3c2)cc1 [Compound 15, 4-cyano-N-(1H-indol-5-yl)benzamide] | 62.7 ± 4.1 |  |  |  |
| O=C(Nc1ccc2[nH]ccc2c1)c1ccc(F)cc1 [Compound 16, 4-fluoro-N-(1H-indol-5-yl)benzamide] | 48.5 ± 1.7 |  |  |  |
| Nc1cccc(C(=O)Nc2ccc3[nH]ccc3c2)c1 [Compound 17, 3-amino-(1H-indol-5-yl)benzamide] | 40 |  |  |  |
| O=C(Nc1ccc2c(c1)Cc1ccccc1-2)c1ccc(Cl)cc1 [Compound 18, 4-chloro-N-(9H-fluoren-2-yl)benzamide] | 69.4 |  |  | 69.4 ± 6.70 |
